Source: PubChem BioAssay (NCI)
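Five concentrations, 48 hours, 96-well plates. At the TGI there is no net growth.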

What was measured:
Test in all cases: DTP human tumour cell line panel, 48 h
786-0 renal = tested on: 786-0 renal
ACHN renal = tested on: ACHN renal
CCRF-CEM leukemia = tested on: CCRF-CEM leukemia
COLO 205 colon = tested on: COLO 205 colon
DU-145 prostate = tested on: DU-145 prostate
HCC-2998 colon = tested on: HCC-2998 colon
HCT-116 colon = tested on: HCT-116 colon
HOP-92 NSCLC = tested on: HOP-92 NSCLC
K-562 leukemia = tested on: K-562 leukemia
M14 melanoma = tested on: M14 melanoma
MDA-MB-231 breast = tested on: MDA-MB-231 breast
NCI/ADR-RES ovarian = tested on: NCI/ADR-RES ovarian
OVCAR-3 ovarian = tested on: OVCAR-3 ovarian
PC-3 prostate = tested on: PC-3 prostate
RPMI-8226 leukemia = tested on: RPMI-8226 leukemia
SF-295 CNS = tested on: SF-295 CNS
SN12C renal = tested on: SN12C renal
SNB-19 CNS = tested on: SNB-19 CNS
SW-620 colon = tested on: SW-620 colon
LOX IMVI melanoma = tested on: LOX IMVI melanoma

Row | Compound | TGI (786-0 renal) [µM] | TGI (ACHN renal) [µM] | TGI (CCRF-CEM leukemia) [µM] | TGI (COLO 205 colon) [µM] | TGI (DU-145 prostate) [µM] | TGI (HCC-2998 colon) [µM] | TGI (HCT-116 colon) [µM] | TGI (HOP-92 NSCLC) [µM] | TGI (K-562 leukemia) [µM] | TGI (M14 melanoma) [µM] | TGI (MDA-MB-231 breast) [µM] | TGI (NCI/ADR-RES ovarian) [µM] | TGI (OVCAR-3 ovarian) [µM] | TGI (PC-3 prostate) [µM] | TGI (RPMI-8226 leukemia) [µM] | TGI (SF-295 CNS) [µM] | TGI (SN12C renal) [µM] | TGI (SNB-19 CNS) [µM] | TGI (SW-620 colon) [µM] | TGI (LOX IMVI melanoma) [µM]
1 | CNc1nc2c(C)ccc3nc(N(C)C)nc-3c2n1C | > 10 | > 10 | > 10 | > 10 | > 10 | > 10 | > 10 | > 10 | > 10 | > 10 | > 10 | > 10 | > 10 | > 10 | > 10 | > 10 | > 10 | > 10 | > 10 | –
2 | CCCCC1=C(C(=O)N2CCOCC2)C2(OCCO2)C1Cl (configuration not stated) | > 100 | 52.1 | > 100 | 54.3 | > 100 | – | > 100 | > 100 | – | 33.9 | > 100 | > 100 | – | > 100 | – | > 100 | 50.1 | > 100 | 89.5 | > 100
3 | CSC1=C(C)S/C(=C\c2ccc(/C=C3\SC(C)=C(SC)S3)cc2)S1 | > 100 | > 100 | > 100 | > 100 | > 100 | > 100 | > 100 | > 100 | > 100 | > 100 | > 100 | > 100 | > 100 | > 100 | – | > 100 | > 100 | > 100 | > 100 | > 100
4 | COc1ccccc1/[N+]([O-])=C/c1ccccc1OC(=S)S | 85.9 | > 100 | – | 86 | > 100 | 80.4 | > 100 | 61.8 | > 100 | > 100 | > 100 | > 100 | > 100 | > 100 | 63.7 | > 100 | > 100 | > 100 | > 100 | > 100
5 | CN(C(=O)C12C3C4C1C1C2C3C41C(=O)O)C(C)(C)C (configuration not stated) | > 100 | > 100 | > 100 | > 100 | > 100 | > 100 | > 100 | > 100 | > 100 | > 100 | > 100 | > 100 | > 100 | > 100 | – | > 100 | > 100 | > 100 | > 100 | > 100
6 | COc1ccc2c(c1OC)C(Br)CCC(Br)(Br)C2=O (configuration not stated) | 15.3 | 3.81 | – | 10.1 | 24.9 | 23.7 | 17.3 | 9.44 | 11.6 | 18.3 | 29.9 | 40.2 | 30.2 | 24.2 | 26.1 | 32.5 | 16.7 | 28.9 | 6.61 | 10.8
7 | O=c1oc2ccccc2cc1-c1nc2ccccc2c(=O)[nH]1 | > 100 | > 100 | > 100 | > 100 | > 100 | > 100 | > 100 | > 100 | > 100 | > 100 | > 100 | > 100 | – | > 100 | > 100 | > 100 | > 100 | > 100 | > 100 | > 100
8 | Cc1ccc(/C(O)=C/c2nc3ccccc3nc2NC23CC4CC(CC(C4)C2)C3)cc1 | > 10 | > 10 | – | > 10 | > 10 | > 10 | > 10 | > 10 | > 10 | > 10 | > 10 | > 10 | > 10 | > 10 | > 10 | > 10 | > 10 | > 10 | > 10 | > 10
9 | O=C(/C=C/c1ccsc1)c1cccs1 | > 100 | > 100 | 54.6 | 94.2 | > 100 | 34.7 | 31.1 | 93.5 | > 100 | 54.4 | > 100 | 44.9 | 57.3 | > 100 | – | > 100 | 41.9 | > 100 | 32.3 | –
10 | O=c1[nH]nc(Cc2ccccc2)n1N=C1CCCCC1 | > 100 | > 100 | > 100 | > 100 | > 100 | – | > 100 | > 100 | > 100 | > 100 | > 100 | > 100 | > 100 | > 100 | > 100 | > 100 | > 100 | > 100 | > 100 | > 100
11 | Cc1ccc(-n2nnc3c(NNc4ccccc4)n[nH]c(=O)c32)cc1 | > 100 | > 100 | > 100 | > 100 | > 100 | > 100 | > 100 | > 100 | > 100 | > 100 | > 100 | > 100 | – | > 100 | > 100 | > 100 | > 100 | > 100 | – | > 100
12 | Nc1nc([O-])c([I+]c2ccccc2)c(=O)[nH]1 | > 100 | > 100 | > 100 | > 100 | > 100 | > 100 | > 100 | > 100 | > 100 | – | > 100 | > 100 | > 100 | > 100 | > 100 | > 100 | > 100 | > 100 | > 100 | > 100
13 | N#Cc1cccc(Nc2ccccc2SSc2ccccc2Nc2cccc(C#N)c2)c1 | 12 | > 21.5 | 14.9 | – | > 21.5 | > 21.5 | 16.5 | 19 | > 21.5 | 18.6 | > 21.5 | 19.7 | > 21.5 | 13.9 | 11.5 | > 21.5 | > 21.5 | 19.5 | 9.19 | 8.88
